Test results taken from ChEMBL document CHEMBL4673391, “Multiresidue Tetrapeptide Substitutions Yield a 140-fold Selective Melanocortin-3 over Melanocortin-4 Receptor Agonist” (ACS Med Chem Lett, 2021).

Legend:
[1] = molecular target: Melanocortin receptor 5 (Mus musculus, UniProt P41149); experiment: Agonist activity at mouse melanocortin receptor 5 expressed in HEK293 cells assessed as stimulation of cAMP accumulation incubated for 2 hrs by cAMP Alpha-screen assay; format: functional, cell-based
Sequence of Melanocortin receptor 5 (P41149 whole entry): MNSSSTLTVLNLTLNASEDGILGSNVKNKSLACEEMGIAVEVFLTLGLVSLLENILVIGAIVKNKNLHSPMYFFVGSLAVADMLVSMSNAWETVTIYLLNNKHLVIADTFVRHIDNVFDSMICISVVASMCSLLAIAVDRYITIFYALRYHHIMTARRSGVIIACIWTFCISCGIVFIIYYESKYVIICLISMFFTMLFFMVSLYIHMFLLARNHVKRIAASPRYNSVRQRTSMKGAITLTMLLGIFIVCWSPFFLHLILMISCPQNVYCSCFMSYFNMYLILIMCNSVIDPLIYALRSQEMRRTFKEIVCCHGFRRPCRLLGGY

[2] = molecular target: Melanocortin receptor 4 (Mus musculus) (UniProt P56450); experiment: Agonist activity at mouse melanocortin receptor 4 expressed in HEK293 cells assessed as stimulation of cAMP accumulation at 100 uM incubated for 2 hrs by cAMP Alpha-screen assay relative to control; format: functional, cell-based
Sequence of Melanocortin receptor 4 (Mus musculus) (P56450 whole entry): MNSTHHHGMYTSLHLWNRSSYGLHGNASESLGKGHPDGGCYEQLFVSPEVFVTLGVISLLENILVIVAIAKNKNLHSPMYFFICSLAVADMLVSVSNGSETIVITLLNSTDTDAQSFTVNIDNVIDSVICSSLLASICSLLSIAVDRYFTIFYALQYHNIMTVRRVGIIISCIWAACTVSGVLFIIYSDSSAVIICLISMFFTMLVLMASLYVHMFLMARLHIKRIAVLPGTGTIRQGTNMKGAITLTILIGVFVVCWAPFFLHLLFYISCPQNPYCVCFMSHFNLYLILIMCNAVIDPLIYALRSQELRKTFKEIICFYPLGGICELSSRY

[3] = molecular target: Melanocortin receptor 3 (Mus musculus, UniProt P33033); experiment: Agonist activity at mouse melanocortin receptor 3 expressed in HEK293 cells assessed as stimulation of cAMP accumulation incubated for 2 hrs by cAMP Alpha-screen assay; format: functional, cell-based
Sequence of Melanocortin receptor 3 (P33033 whole entry): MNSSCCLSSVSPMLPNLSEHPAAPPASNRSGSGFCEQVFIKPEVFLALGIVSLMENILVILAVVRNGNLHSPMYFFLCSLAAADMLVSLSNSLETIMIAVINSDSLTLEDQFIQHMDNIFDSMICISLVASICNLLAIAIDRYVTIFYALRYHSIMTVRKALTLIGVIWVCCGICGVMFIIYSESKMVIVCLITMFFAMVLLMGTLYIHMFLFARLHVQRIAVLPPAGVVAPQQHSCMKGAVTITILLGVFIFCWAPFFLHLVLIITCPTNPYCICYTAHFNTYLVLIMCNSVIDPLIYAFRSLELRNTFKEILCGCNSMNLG

[4] = organism: Mus musculus; experiment: Selectivity index, ratio of Ki for mouse melanocortin receptor 4 expressed in HEK293 cells to EC50 for mouse melanocortin receptor 3 expressed in HEK293 cells assessed as stimulation of cAMP accumulation incubated for 2 hrs by cAMP Alpha-screen assay; format: cell-based
[5] = molecular target: T1, Melanocortin receptor 4 (Mus musculus, UniProt P56450); experiment: Antagonist activity at mouse melanocortin receptor 4 expressed in HEK293 cells assessed as inhibition of NDP-MSH-induced cAMP accumulation incubated for 2 hrs by cAMP Alpha-screen assay based Schild analysis; format: functional, cell-based; details: for Kb: read-out: pA2 (converted)
T1 sequence (P56450 whole entry): as the sequence (P56450 whole entry) above

[6] = molecular target: Melanocyte-stimulating hormone receptor (Mus musculus, UniProt Q01727); experiment: Agonist activity at mouse melanocortin receptor 1 expressed in HEK293 cells assessed as stimulation of cAMP accumulation incubated for 2 hrs by cAMP Alpha-screen assay; format: functional, cell-based
Sequence of Melanocyte-stimulating hormone receptor (Q01727 whole entry): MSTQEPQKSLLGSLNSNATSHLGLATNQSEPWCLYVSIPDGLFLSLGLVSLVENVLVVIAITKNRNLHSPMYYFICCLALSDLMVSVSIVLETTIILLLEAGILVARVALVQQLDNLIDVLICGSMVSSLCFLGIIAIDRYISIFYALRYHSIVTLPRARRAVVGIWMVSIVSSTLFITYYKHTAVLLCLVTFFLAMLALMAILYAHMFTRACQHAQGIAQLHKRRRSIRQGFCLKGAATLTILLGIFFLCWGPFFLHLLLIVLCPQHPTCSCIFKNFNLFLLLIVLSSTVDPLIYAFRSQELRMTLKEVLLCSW

[7] = molecular target: T1, Melanocortin receptor 4; experiment: Agonist activity at mouse melanocortin receptor 4 expressed in HEK293 cells assessed as stimulation of cAMP accumulation incubated for 2 hrs by cAMP Alpha-screen assay; format: functional, cell-based
[8] = organism: Mus musculus; experiment: Selectivity index, ratio of EC50 for mouse melanocortin receptor 4 expressed in HEK293 cells to EC50 for mouse melanocortin receptor 3 expressed in HEK293 cells assessed as stimulation of cAMP accumulation incubated for 2 hrs by cAMP Alpha-screen assay; format: cell-based
[9] = molecular target: Melanocyte-stimulating hormone receptor (Mus musculus) (UniProt Q01727); experiment: Partial agonist activity at mouse melanocortin receptor 1 expressed in HEK293 cells assessed as stimulation of cAMP accumulation incubated for 2 hrs by cAMP Alpha-screen assay relative to NDP-MSH; format: functional, cell-based; details: filed as partial agonist
Sequence of Melanocyte-stimulating hormone receptor (Mus musculus) (Q01727 whole entry, looked up): as the sequence (Q01727 whole entry) above

| SMILES | EC50 [1] | Activity [2] | EC50 [3] | Selectivity ratio [4] | Ki [5] | Kb [5] | EC50 [6] | EC50 [7] | Ratio EC50 [8] | Activity ([2]; filed as agonist) | Activity [9] |
| --- | --- | --- | --- | --- | --- | --- | --- | --- | --- | --- | --- |
| CC(=O)N[C@@H](Cc1c[nH]cn1)C(=O)N[C@@H](CCC(N)=O)C(=O)N[C@H](Cc1ccc(-c2ccccc2)cc1)C(=O)N1Cc2ccccc2C[C@H]1C(N)=O | 31 nM | 20% | 150 nM | 65 | 10000 nM | 10000 nM | 160 nM |  |  |  |  |
| CC(=O)N[C@@H](CCCNC(=N)N)C(=O)N[C@@H](CCC(N)=O)C(=O)N[C@H](Cc1ccc(-c2ccccc2)cc1)C(=O)N1Cc2ccccc2C[C@@H]1C(N)=O | 5.6 nM |  | 14 nM |  |  |  | 11 nM | 400 nM | 28 |  |  |
| CC(=O)N[C@@H](CCCNC(=N)N)C(=O)N[C@@H](CCCNC(=N)N)C(=O)N[C@H](Cc1ccc(-c2ccccc2)cc1)C(=O)N1Cc2ccccc2C[C@H]1C(N)=O | 3.5 nM | 35% | 11 nM | 11 | 125 nM | 126 nM | 0.23 nM |  |  |  |  |
| CC(=O)N[C@@H](CCCNC(=N)N)C(=O)N[C@@H](CCC(N)=O)C(=O)N[C@H](Cc1ccc(-c2ccccc2)cc1)C(=O)N1Cc2ccccc2C[C@H]1C(N)=O | 16.4 nM |  | 66 nM | 30 | 2000 nM | 2000 nM | 60 nM |  |  | 40% |  |
| CC(=O)N[C@@H](Cc1c[nH]cn1)C(=O)N[C@@H](CCCNC(=N)N)C(=O)N[C@H](Cc1ccc(-c2ccccc2)cc1)C(=O)N1Cc2ccccc2C[C@@H]1C(N)=O | 26 nM | 35% | 39 nM | 8 | 320 nM | 316 nM | 0.9 nM |  |  |  |  |
| CC(=O)N[C@H](C(=O)N[C@@H](CCCNC(=N)N)C(=O)N[C@H](Cc1ccc(-c2ccccc2)cc1)C(=O)N1Cc2ccccc2C[C@H]1C(N)=O)C(C)C | 18 nM | 10% | 40 nM | 10 | 400 nM | 398 nM | 1.1 nM |  |  |  |  |
| CC(=O)N[C@@H](Cc1c[nH]cn1)C(=O)N[C@@H](CCC(N)=O)C(=O)N[C@H](Cc1ccc(-c2ccccc2)cc1)C(=O)N1Cc2ccccc2C[C@@H]1C(N)=O | 39 nM |  | 110 nM | 36 | 3980 nM | 3980 nM | 123 nM |  |  | 50% |  |
| CC(=O)N[C@@H](CCCNC(=N)N)C(=O)N[C@@H](CCCNC(=N)N)C(=O)N[C@H](Cc1ccc(-c2ccccc2)cc1)C(=O)N1Cc2ccccc2C[C@@H]1C(N)=O | 5.7 nM |  | 14 nM | 11 | 160 nM | 158 nM | 0.6 nM |  |  | 40% |  |
| CC(=O)N[C@H](C(=O)N[C@@H](CCC(N)=O)C(=O)N[C@H](Cc1ccc(-c2ccccc2)cc1)C(=O)N1Cc2ccccc2C[C@@H]1C(N)=O)C(C)C | 36 nM |  | 70 nM | > 140 | > 10000 nM | > 10000 nM | 150 nM |  |  | 40% | 75% |
| CC(=O)N[C@@H](Cc1c[nH]cn1)C(=O)N[C@@H](CCCNC(=N)N)C(=O)N[C@H](Cc1ccc(-c2ccccc2)cc1)C(=O)N1Cc2ccccc2C[C@H]1C(N)=O | 9 nM | 35% | 22 nM | 14 | 320 nM | 316 nM | 0.5 nM |  |  |  |  |
| CC(=O)N[C@H](C(=O)N[C@@H](CCC(N)=O)C(=O)N[C@H](Cc1ccc(-c2ccccc2)cc1)C(=O)N1Cc2ccccc2C[C@H]1C(N)=O)C(C)C | 31 nM | 20% | 110 nM | > 90 | > 10000 nM | > 10000 nM | 80 nM |  |  |  | 85% |
| CC(=O)N[C@H](C(=O)N[C@@H](CCCNC(=N)N)C(=O)N[C@H](Cc1ccc(-c2ccccc2)cc1)C(=O)N1Cc2ccccc2C[C@@H]1C(N)=O)C(C)C | 25 nM | 35% | 36 nM | 7 | 250 nM | 251 nM | 1.7 nM |  |  |  |  |
